According to PubChem BioAssay (NCI):
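Five compound concentrations were applied to cells in 96-well plates for 48 hours; endpoints were derived by simple linear interpolation of the resulting dose-response curve. At the GI50, growth is halved. TGI: total growth inhibition.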

Key:
Test in all cases: DTP human tumour cell line panel, 48 h
SF-268 CNS = system: SF-268 CNS
PC-3 prostate = system: PC-3 prostate
CCRF-CEM leukemia = system: CCRF-CEM leukemia
HCT-15 colon = system: HCT-15 colon
HL-60(TB) leukemia = system: HL-60(TB) leukemia
TK-10 renal = system: TK-10 renal
KM12 colon = system: KM12 colon
SNB-19 CNS = system: SNB-19 CNS
CAKI-1 renal = system: CAKI-1 renal
RXF 393 renal = system: RXF 393 renal
MOLT-4 leukemia = system: MOLT-4 leukemia
NCI-H23 lung = system: NCI-H23 lung
HS 578T breast = system: HS 578T breast
SNB-75 CNS = system: SNB-75 CNS
RPMI-8226 leukemia = system: RPMI-8226 leukemia
SK-MEL-5 melanoma = system: SK-MEL-5 melanoma
SF-539 CNS = system: SF-539 CNS
MALME-3M melanoma = system: MALME-3M melanoma
IGROV1 ovarian = system: IGROV1 ovarian
OVCAR-8 ovarian = system: OVCAR-8 ovarian
MDA-MB-231 breast = system: MDA-MB-231 breast
NCI-H522 lung = system: NCI-H522 lung
OVCAR-4 ovarian = system: OVCAR-4 ovarian
UO-31 renal = system: UO-31 renal
NCI-H460 lung = system: NCI-H460 lung
HCC-2998 colon = system: HCC-2998 colon
UACC-62 melanoma = system: UACC-62 melanoma
ACHN renal = system: ACHN renal
MDA-MB-435 = system: MDA-MB-435
NCI/ADR-RES ovarian = system: NCI/ADR-RES ovarian
OVCAR-3 ovarian = system: OVCAR-3 ovarian
786-0 renal = system: 786-0 renal
T-47D breast = system: T-47D breast
LOX IMVI melanoma = system: LOX IMVI melanoma
UACC-257 melanoma = system: UACC-257 melanoma
DU-145 prostate = system: DU-145 prostate
U251 CNS = system: U251 CNS
HOP-92 NSCLC = system: HOP-92 NSCLC
HOP-62 NSCLC = system: HOP-62 NSCLC
A498 renal = system: A498 renal
SF-295 CNS = system: SF-295 CNS
HT29 colon = system: HT29 colon
SR leukemia = system: SR leukemia
SK-MEL-28 melanoma = system: SK-MEL-28 melanoma
SK-OV-3 ovarian = system: SK-OV-3 ovarian
SN12C renal = system: SN12C renal
NCI-H226 lung = system: NCI-H226 lung
K-562 leukemia = system: K-562 leukemia
A549 NSCLC = system: A549 NSCLC
COLO 205 colon = system: COLO 205 colon
BT-549 breast = system: BT-549 breast
SW-620 colon = system: SW-620 colon
HCT-116 colon = system: HCT-116 colon
OVCAR-5 ovarian = system: OVCAR-5 ovarian
SK-MEL-2 melanoma = system: SK-MEL-2 melanoma
MCF7 breast = system: MCF7 breast
M14 melanoma = system: M14 melanoma

**Q.** How did the GI50 (SF-268 CNS) turn out when CCN(Cc1ccccc1OC)c1ccc(CO)c(Cl)c1 was run?
**A.** 15.1 µM

**Q.** And the TGI (SF-268 CNS)?
**A.** 30.7 µM

**Q.** What about the GI50 (PC-3 prostate) of the same molecule?
**A.** 12.3 µM

**Q.** What about the TGI (PC-3 prostate) of the same molecule?
**A.** 27.9 µM

**Q.** And the GI50 (CCRF-CEM leukemia)?
**A.** 19 µM

**Q.** What about the TGI (CCRF-CEM leukemia) of the same molecule?
**A.** 60.3 µM

**Q.** What about the GI50 (HCT-15 colon) of the same molecule?
**A.** 7.11 µM

**Q.** And the TGI (HCT-15 colon)?
**A.** 23.6 µM

**Q.** And the GI50 (HL-60(TB) leukemia)?
**A.** 11.8 µM

**Q.** And the TGI (HL-60(TB) leukemia)?
**A.** 34.9 µM

**Q.** What about the GI50 (TK-10 renal) of the same molecule?
**A.** 0.0512 µM

**Q.** And the TGI (TK-10 renal)?
**A.** 0.372 µM

**Q.** What about the GI50 (KM12 colon) of the same molecule?
**A.** 11 µM

**Q.** What about the TGI (KM12 colon) of the same molecule?
**A.** 25.8 µM

**Q.** And the GI50 (SNB-19 CNS)?
**A.** 13.7 µM

**Q.** What about the TGI (SNB-19 CNS) of the same molecule?
**A.** 31.8 µM

**Q.** And the GI50 (CAKI-1 renal)?
**A.** 5.62 µM

**Q.** And the TGI (CAKI-1 renal)?
**A.** 23.9 µM

**Q.** And the GI50 (RXF 393 renal)?
**A.** 7.61 µM

**Q.** And the TGI (RXF 393 renal)?
**A.** 24.7 µM

**Q.** What about the GI50 (MOLT-4 leukemia) of the same molecule?
**A.** 18.1 µM

**Q.** What about the TGI (MOLT-4 leukemia) of the same molecule?
**A.** 46.2 µM

**Q.** What about the GI50 (NCI-H23 lung) of the same molecule?
**A.** 8.96 µM

**Q.** What about the TGI (NCI-H23 lung) of the same molecule?
**A.** 29.9 µM

**Q.** What about the GI50 (HS 578T breast) of the same molecule?
**A.** 13.4 µM

**Q.** What about the TGI (HS 578T breast) of the same molecule?
**A.** 37.2 µM

**Q.** And the GI50 (SNB-75 CNS)?
**A.** 9.47 µM

**Q.** What about the TGI (SNB-75 CNS) of the same molecule?
**A.** 26.5 µM

**Q.** And the GI50 (RPMI-8226 leukemia)?
**A.** 2.67 µM

**Q.** And the TGI (RPMI-8226 leukemia)?
**A.** 21.5 µM

**Q.** And the GI50 (SK-MEL-5 melanoma)?
**A.** 6.61 µM

**Q.** What about the TGI (SK-MEL-5 melanoma) of the same molecule?
**A.** 19.9 µM

**Q.** And the GI50 (SF-539 CNS)?
**A.** 14.4 µM

**Q.** And the TGI (SF-539 CNS)?
**A.** 27.8 µM

**Q.** And the GI50 (MALME-3M melanoma)?
**A.** 12.9 µM

**Q.** What about the TGI (MALME-3M melanoma) of the same molecule?
**A.** 27.5 µM

**Q.** And the GI50 (IGROV1 ovarian)?
**A.** 0.0502 µM

**Q.** And the TGI (IGROV1 ovarian)?
**A.** 0.337 µM

**Q.** And the GI50 (OVCAR-8 ovarian)?
**A.** 12.4 µM

**Q.** What about the TGI (OVCAR-8 ovarian) of the same molecule?
**A.** 31.8 µM

**Q.** And the GI50 (MDA-MB-231 breast)?
**A.** 11.1 µM

**Q.** And the TGI (MDA-MB-231 breast)?
**A.** 24.9 µM

**Q.** And the GI50 (NCI-H522 lung)?
**A.** 12 µM

**Q.** What about the TGI (NCI-H522 lung) of the same molecule?
**A.** 26.1 µM

**Q.** And the GI50 (OVCAR-4 ovarian)?
**A.** 0.518 µM

**Q.** And the TGI (OVCAR-4 ovarian)?
**A.** 10.3 µM

**Q.** What about the GI50 (UO-31 renal) of the same molecule?
**A.** 11.5 µM

**Q.** And the TGI (UO-31 renal)?
**A.** 24.7 µM

**Q.** And the GI50 (NCI-H460 lung)?
**A.** 0.511 µM

**Q.** And the TGI (NCI-H460 lung)?
**A.** 11.6 µM

**Q.** What about the GI50 (HCC-2998 colon) of the same molecule?
**A.** 10.7 µM

**Q.** And the TGI (HCC-2998 colon)?
**A.** 24.5 µM

**Q.** What about the GI50 (UACC-62 melanoma) of the same molecule?
**A.** 0.223 µM

**Q.** What about the TGI (UACC-62 melanoma) of the same molecule?
**A.** 1.79 µM

**Q.** What about the GI50 (ACHN renal) of the same molecule?
**A.** 14.1 µM

**Q.** What about the TGI (ACHN renal) of the same molecule?
**A.** 27.4 µM

**Q.** And the GI50 (MDA-MB-435)?
**A.** 3.06 µM

**Q.** What about the TGI (MDA-MB-435) of the same molecule?
**A.** 12.4 µM

**Q.** What about the GI50 (NCI/ADR-RES ovarian) of the same molecule?
**A.** 9.22 µM

**Q.** What about the TGI (NCI/ADR-RES ovarian) of the same molecule?
**A.** 26.9 µM

**Q.** What about the GI50 (OVCAR-3 ovarian) of the same molecule?
**A.** 0.767 µM

**Q.** And the TGI (OVCAR-3 ovarian)?
**A.** 4.48 µM

**Q.** And the GI50 (786-0 renal)?
**A.** 13 µM

**Q.** And the TGI (786-0 renal)?
**A.** 26.2 µM

**Q.** And the GI50 (T-47D breast)?
**A.** 0.091 µM

**Q.** What about the TGI (T-47D breast) of the same molecule?
**A.** 0.685 µM

**Q.** And the GI50 (LOX IMVI melanoma)?
**A.** 15.1 µM

**Q.** And the TGI (LOX IMVI melanoma)?
**A.** 29.6 µM

**Q.** And the GI50 (UACC-257 melanoma)?
**A.** 0.162 µM

**Q.** What about the TGI (UACC-257 melanoma) of the same molecule?
**A.** 0.498 µM

**Q.** And the GI50 (DU-145 prostate)?
**A.** 15.8 µM

**Q.** And the TGI (DU-145 prostate)?
**A.** 33.4 µM

**Q.** What about the GI50 (U251 CNS) of the same molecule?
**A.** 1.38 µM

**Q.** And the TGI (U251 CNS)?
**A.** 14.8 µM

**Q.** And the GI50 (HOP-92 NSCLC)?
**A.** 1.66 µM

**Q.** And the TGI (HOP-92 NSCLC)?
**A.** 8.51 µM

**Q.** And the GI50 (HOP-62 NSCLC)?
**A.** 3.16 µM

**Q.** What about the TGI (HOP-62 NSCLC) of the same molecule?
**A.** 16.4 µM

**Q.** What about the GI50 (A498 renal) of the same molecule?
**A.** 0.0454 µM

**Q.** And the TGI (A498 renal)?
**A.** 0.13 µM

**Q.** And the GI50 (SF-295 CNS)?
**A.** 2.71 µM

**Q.** And the TGI (SF-295 CNS)?
**A.** 15.3 µM

**Q.** What about the GI50 (HT29 colon) of the same molecule?
**A.** 4.7 µM

**Q.** What about the TGI (HT29 colon) of the same molecule?
**A.** 18 µM

**Q.** And the GI50 (SR leukemia)?
**A.** 8.53 µM

**Q.** What about the TGI (SR leukemia) of the same molecule?
**A.** 40.9 µM

**Q.** And the GI50 (SK-MEL-28 melanoma)?
**A.** 10.3 µM

**Q.** What about the TGI (SK-MEL-28 melanoma) of the same molecule?
**A.** 24.8 µM

**Q.** And the GI50 (SK-OV-3 ovarian)?
**A.** 7.15 µM

**Q.** What about the TGI (SK-OV-3 ovarian) of the same molecule?
**A.** 20.9 µM

**Q.** And the GI50 (SN12C renal)?
**A.** 11.1 µM

**Q.** And the TGI (SN12C renal)?
**A.** 23.5 µM

**Q.** And the GI50 (NCI-H226 lung)?
**A.** 0.0487 µM

**Q.** And the TGI (NCI-H226 lung)?
**A.** 0.179 µM

**Q.** And the GI50 (K-562 leukemia)?
**A.** 2.16 µM

**Q.** What about the TGI (K-562 leukemia) of the same molecule?
**A.** 12.1 µM

**Q.** What about the GI50 (A549 NSCLC) of the same molecule?
**A.** 4.26 µM

**Q.** What about the TGI (A549 NSCLC) of the same molecule?
**A.** 19.8 µM

**Q.** And the GI50 (COLO 205 colon)?
**A.** 4.81 µM

**Q.** And the TGI (COLO 205 colon)?
**A.** 14.4 µM

**Q.** What about the GI50 (BT-549 breast) of the same molecule?
**A.** 12.8 µM

**Q.** And the TGI (BT-549 breast)?
**A.** 26 µM

**Q.** What about the GI50 (SW-620 colon) of the same molecule?
**A.** 2.33 µM

**Q.** What about the TGI (SW-620 colon) of the same molecule?
**A.** 17.5 µM

**Q.** What about the GI50 (HCT-116 colon) of the same molecule?
**A.** 0.215 µM

**Q.** What about the TGI (HCT-116 colon) of the same molecule?
**A.** 8.77 µM

**Q.** And the GI50 (OVCAR-5 ovarian)?
**A.** 0.123 µM

**Q.** What about the TGI (OVCAR-5 ovarian) of the same molecule?
**A.** 0.416 µM

**Q.** What about the GI50 (SK-MEL-2 melanoma) of the same molecule?
**A.** 2.11 µM

**Q.** What about the TGI (SK-MEL-2 melanoma) of the same molecule?
**A.** 10.9 µM

**Q.** And the GI50 (MCF7 breast)?
**A.** 0.566 µM

**Q.** What about the TGI (MCF7 breast) of the same molecule?
**A.** 12.3 µM

**Q.** What about the GI50 (M14 melanoma) of the same molecule?
**A.** 12.4 µM

**Q.** And the TGI (M14 melanoma)?
**A.** 25.5 µM
